Literature values as cited in patent US20180125772A1, “Oral Care Compositions” (Colgate-Palmolive Company, priority 2016, published 2018).

Settings: aqueous solution, pH of no net charge

NCCCC[C@H](N)C(=O)O [lysine]
isoelectric point: 9.7 pH
